Source: US7858125B2, “Multi-component biocide composition for wood protection” (priority 2006, dated 2010)

Legend:
Coptotermes formosans = assay: Termite bioassay, no-choice test procedure; assay type: in vivo; details: dip-treated southern yellow pine blocks, 1 gram of termites, four weeks, 27° C., 80% RH
Protocol: In this Example, various concentrations of a biocide composition were evaluated for its ability to inhibit termite infestation. The ability of the biocide composition was then compared to the ability of disodium octaborate tetrahydrate, a borate component, alone and an untreated control to inhibit termite infestation. Specifically, samples of the subterranean termite, Coptotermes formosans, were collected at the Formosan Termite Research Facility at McNeill, Miss. for a termite bioassay. To begin the termite bioassay, pre-weighed and pre-conditioned southern yellow pine blocks (1×1×1 centimeter) (n=5) were dip-treated with two concentrations of a biocide composition. A first control sample (Control A) was prepared by dipping blocks into DI water. A second control sample (Control B) was prepared by dipping the blocks into 0.28% (by weight) disodium octaborate tetrahydrate. […] Each block was conditioned to ensure all solvent had dissipated prior to being subjected to a termite bioassay according to no-choice test procedure (ASTM 1998). […] Damp filter paper was placed into the lid of each dish to help maintain humidity during a four-week incubation at 27° C. and 80% relative humidity. The dishes were examined daily and mortality of the termites was recorded. […]

[1] = tested on: mixed spore preparation of Aspergillus niger, Penicillium chrysogenum and Trichoderma viride; assay: Mold resistance of dip-treated wood stakes (ASTM D4445-91), mixed mold spore inoculum; assay type: cell-based; details: Example 4; unseasoned southern yellow pine stakes dip-treated 15 s, 4 weeks, 27° C., 70% RH; scale 0-5
From the text: The biocide compositions were first tested for the efficacy in preventing mold fungal growth. The mold fungi used in the mold growth analysis included Aspergillus niger 2.242 (available from University of Virginia, Charlottesville, Va.), Penicillium chrysogenum PH02 (an isolate provided by Forest Products Laboratory, Madison, Wis.) and Trichoderma viride ATCC 20476 (available from American Type Culture Collection, Rockville, Md.). The mold fungi were first prepared by growing the various mold fungi species on 2% malt agar. A mixed spore preparation was then prepared by washing the surface of a 2-week old culture of each fungus with 10 milliliters of sterile deionized (DI) water according to the American Society for Testing and Materials (ASTM) standard D4445-91 (1998). Spore suspensions were transferred to a spray bottle and diluted to 100 milliliters with DI water. The spray bottle was adjusted to deliver 1 milliliter inoculum/spray.
Specimens (7×20 millimeters cross section by 7 centimeters long) were cut from unseasoned southern yellow pine mill ends from a Mississippi sawmill and stored at 0° C. Average moisture content of the specimens was 48% by weight (n=3). Southern yellow pine oriented strand board (OSB) specimens (11×20 millimeters cross section by 7 centimeters long) were cut from a full sheet of OSB and conditioned to 70% relative humidity. Five replicate specimen stakes were dip-treated for approximately 15 seconds in each biocide composition and held in a covered container overnight according to the ASTM standard test method D4445-91 (1998). Specimens were then arranged over four layers of blotting paper that was saturated with 30 milliliters DI water and a polyethylene mesh spacer in sterile disposable Petri dishes (150×25 millimeters) (commercially available from B-D Falcon, Los Angeles, Calif.). Untreated stakes were dipped in DI water and served as Control A for water-based test chemicals. Additional stakes were dipped in 70% (by weight) ethanol to serve as Control B for test chemicals of low solubility. […]

[2] = tested on: Reticulotermes flavipes (Kollar); assay: Termite bioassay, no-choice test procedure; assay type: in vivo; details: dip-treated southern yellow pine blocks, four weeks; for Termite Bioassay Mortality Rating: 1 gram of termites, 27° C., 80% RH; for Termite Bioassay Attack Rating: visual rating 10 (no attack), 9 light, 7 moderate, 4 heavy, 0 (complete failure)
From the text: The biocide compositions were additionally evaluated for their ability to inhibit termite infestation. Specifically, numerous samples of the subterranean termite, Reticulotermes flavipes (Kollar), were collected in Janesville, Wis. for a termite bioassay.
To begin the termite bioassay, pre-weighed and pre-conditioned southern yellow pine blocks (1×1×1 centimeter) (n=5) were dip-treated with either the biocide compositions prepared above or the individual components. Five control samples were prepared by dipping blocks into DI water.
Each block was conditioned to ensure all solvent had dissipated prior to being subjected to a termite bioassay according to no-choice test procedure (ASTM 1998). Each block was then placed in a lidded test dish with 50 grams sand, […] of DI water, and 1 gram of termites. The dishes were incubated at 27° C. and 80% relative humidity for four weeks. The dishes were examined after one and four weeks for tunneling and mortality. The mortality was scaled using a label of “none” (representing a mortality rating of 0%); “slight” (representing a mortality rating of from 1% to 33%); “moderate” (representing a mortality rating of from 34% to 66%) “heavy” (representing a mortality rating of from 67% to 99%); or “complete” (representing a mortality rating of 100%). At the end of the four-week test period, the blocks were removed from the dishes, cleaned, dried, re-conditioned and weighed to determine weight loss of the block, indicating the relative wood consumption of the block by the termites. Additionally, a visual rating of 10 (representing no attack); 9 (representing a light attack); 7 (representing a moderate attack); 4 (representing a heavy attack); or 0 (representing complete failure in inhibiting termite infestation), was recorded for each sample block.

P. placenta = assay: Soil block test (AWPA E-10-01), brown-rot decay; assay type: cell-based, Postia placenta MAD 698; details: vacuum-treated southern yellow pine blocks, 12 weeks (Example 1 text; Example 4, FIG. 1)
Protocol: (§1) In addition to the mold fungi analysis above, the biocide compositions were tested for their efficacy in preventing decay fungal growth. The decay fungi used in the decay fungal growth analysis included Postia placenta MAD 698 (Fries) Lars. & Lomb., Gloeophyllum trabeum MAD 617 (Pers:Fries) Murrill, and Coriolus versicolor MAD 697 (L.:Fr.) Pilat. The decay fungi, all obtained from the Center of Forest Mycology Research (Forest Products Laboratory, Madison, Wis.) were maintained on 2% malt agar.
(§2) To test the biocide compositions' abilities to inhibit decay fungal growth, soil block culture bottles were prepared according to American Wood Preservers' Association (AWPA) E-10-01 (2003). Southern yellow pine feeders were inoculated with two brown-rot fungus, P. placenta and G. trabeum and maple feeders were inoculated with one white-rot fungus, C. versicolor. Bottles were incubated at 27° C. and 70% relative humidity for three weeks until the fungus completely colonized each feeder. […] The blocks were weighed and the average percentage weight loss was calculated. […]
(§3) To test the biocide compositions' abilities to inhibit decay fungal growth, soil block culture bottles were first prepared according to American Wood Preservers' Association (AWPA) E-10-01 (2003). […] The blocks were weighed and the average percentage weight loss was calculated.

G. trabeum = assay: Soil block test (AWPA E-10-01), brown-rot decay; assay type: cell-based, Gloeophyllum trabeum MAD 617; details: vacuum-treated southern yellow pine blocks, 12 weeks (Example 1 text; Example 4, FIG. 1)
Protocol: as §1, §2, §3

C. versicolor = assay: Soil block test (AWPA E-10-01), white-rot decay; assay type: cell-based, Coriolus versicolor MAD 697; details: vacuum-treated southern yellow pine blocks, 12 weeks (Example 1 text; Example 4, FIG. 1)
Protocol: as §1, §2, §3

| Compound | Average Weight Loss (%) (Coptotermes formosans) | Mold Resistance Average Rating, Southern Pine [1] | Termite Bioassay Mortality Rating [2] | Termite Bioassay Attack Rating [2] | Inhibition of decay by P. placenta, in words (P. placenta) | Inhibition of decay by G. trabeum, in words (G. trabeum) | Inhibition of decay by C. versicolor, in words (C. versicolor) |
| --- | --- | --- | --- | --- | --- | --- | --- |
| O.O.O.O.O=BOB1OB(OB=O)OB2OB([O-])OB([O-])OB(O1)O2.[Na+].[Na+] [Control B, disodium octaborate tetrahydrate] | 4.20% |  |  |  |  |  |  |
| C[C@@H](c1ncncc1F)[C@](O)(Cn1cncn1)c1ccc(F)cc1F [E, Voriconazole] |  | 0.04 | None | 0.0 |  |  |  |
| c1ccc2[nH]c(-c3cscn3)nc2c1 [F, Thiabendazole] |  | 0.0 | None | 0.0 |  |  |  |
| CC(C)c1cccc(O)c(=O)c1 [G, Thujaplicin (isopropyltropolone)] |  | 3.2 | None | 0.0 |  |  |  |
| Thujaplicin (isopropyltropolone) |  |  |  |  | did not inhibit decay | did not inhibit decay | did not inhibit decay |
